Where “and” joins values, the source holds several entries; their conditions need not be identical. Equal values may be shown once.
Tested on: S180 ascites
Experiment: Screening for antitumor activity against S180 ascites (increase in life span, survivors)
Assay type: in vivo, female CFW Swiss mice
Procedure: The various Pt ascorbate analogs were tested for antitumor activity against S180 ascites in female CFW Swiss mice by the following procedure.
CFW mice, averaging 20 g, are immediately inspected and placed in newly prepared cages. On day zero the mice are inoculated with 0.2 ml of a freshly prepared saline suspension (0.15 M NaCl) containing […], or a total of 2 x 10^6 cells. This inoculum is freshly prepared using "transfer" mice which have been injected with tumor cells the previous week. This inoculum is the end product of a series of steps which involve (1) the removal of the cells from the peritoneal cavity of the sacrificed transfer mouse, (2) alternate centrifugation-washing (2-3 times with cold saline) to remove occasional blood and other undesirable components, and finally (3) dilution (1:3) of the packed cell volume with saline (the final centrifugation being carried out at 1,000 rpm for 2 min). A cell count is made on a 2,000--fold dilution of this 1:3 suspension by means of a Coulter Counter. A final dilution to 1 x 10^7 cells/ml is made based on the averaged count. On day 1, solutions of the test compounds are prepared and the mice injected, with each mouse of a set of six being injected with the same test compound at the same dose level. Also, on this day, two types of controls (6 mice/set) are employed: (1) Normal (1 set): 0.5 ml of the solvent medium used for the test compound, and (2) Positive control (1 set): a known anti-tumor agent (cis-[Pt(NH3)2cI2] in saline at 8 mg/kg), used to test the response to the biological system.
The effectiveness of a compound is measured in terms of the increase in life span (% ILS) of the test animals relative to the controls (calculated from the day of tumor inoculation, day zero). In order to standardize the test data and permit intercomparisons to be made, the day of evaluation is arbitrarily taken as that day corresponding to twice the mean life-span (or average day of death) of the normal controls. This sets a practical upper limit of 100% on the ILS attainable. For calculation purposes, survivors on the day of evaluation are considered to have died on that day. The % ILS is formulated as: [formula]
ILS values above 50% represent significant activity; those above 75% represent excellent activity.

[1] = positive control of the same experiment, in saline at 8 mg/kg, 8 mg/kg
[2] = dose 10 mg/kg, administered in water
[3] = dose 20 mg/kg, administered in water
[4] = dose 40 mg/kg, administered in water
[5] = dose 80 mg/kg, administered in water
[6] = dose 160 mg/kg, administered in water
[7] = dose 320 mg/kg, administered in water
[8] = dose 5 mg/kg, administered in HNO3 ascorbic acid
[9] = dose 10 mg/kg, administered in HNO3 ascorbic acid
[10] = dose 20 mg/kg, administered in HNO3 ascorbic acid
[11] = dose 40 mg/kg, administered in HNO3 ascorbic acid
[12] = dose 80 mg/kg, administered in HNO3 ascorbic acid
[13] = dose 160 mg/kg, administered in HNO3 ascorbic acid
[14] = dose 320 mg/kg, administered in HNO3 ascorbic acid
[15] = dose 640 mg/kg, administered in HNO3 ascorbic acid
[16] = dose 640 mg/kg, administered in water
[17] = dose 800 mg/kg, administered in water
[18] = dose 1280 mg/kg, administered in water
[19] = dose 1920 mg/kg, administered in water
[20] = dose 5 mg/kg, administered in water
[21] = dose 5 mg/kg, administered in water, injected day 1, 5 mg/kg

| Molecule | 30-Day Survivors [2] | %ILS [2] | 30-Day Survivors [3] | %ILS [3] | 30-Day Survivors [4] | %ILS [4] | 30-Day Survivors [5] | %ILS [5] | 30-Day Survivors [6] | %ILS [6] | 30-Day Survivors [7] | %ILS [7] | further results |
| --- | --- | --- | --- | --- | --- | --- | --- | --- | --- | --- | --- | --- | --- |
| N.N.[Cl][Pt][Cl] [Control, cis-[Pt(NH3)2cI2], reference compound] |  |  |  |  |  |  |  |  |  |  |  |  | Control 30-Day Survivors [1]: 6/6 and 1/6 and 4/6 and 3/6 and 2/6 and 0/6 and 5/6; Control %ILS [1]: 98% and 67% and 77% and 86% and 79% and 76% and 71% and 94% |
| Cis-[Pt(NH3)2(ascorbate)].2H2O [cis[Pt(NH3)2-(ascorbate)]] | 0/6 | -2% | 0/6 | 6% | 0/6 | -6% | 0/6 | -1% | 1/6 | 57% | 3/6 | 79% |  |
| Pt(cis-dach)(ascorbate)2·2H2O [[Pt(cis-dach)-(ascorbate)2]] | 0/6 | 21% | 0/6 | 12% | 0/6 | 29% | 0/6 | 60% | 5/6 | 97% | 1/6 | 68% |  |
| Pt(ethylenediamine)(ascorbate) [listing 1 of 2 here] | 0/6 | 4% | 0/6 | 6% | 0/6 | 22% | 0/6 | -2% | 0/6 | 10% | 0/6 | 24% |  |
| Pt(ethylenediamine)(ascorbate) [listing 2 of 2 here] |  |  |  |  |  |  |  |  |  |  |  |  | activity against Sarcoma 180 ascites tumors in comparison with the unacidified complex (after contact with an aqueous acid solution): enhanced activity; 30-Day Survivors [8]: 0/6; %ILS [8]: 3%; 30-Day Survivors [9]: 0/6; %ILS [9]: 27%; 30-Day Survivors [10]: 0/6; %ILS [10]: 45%; 30-Day Survivors [11]: 3/6; %ILS [11]: 75%; 30-Day Survivors [12]: 3/6; %ILS [12]: 93%; 30-Day Survivors [13]: 2/6; %ILS [13]: 70% |
| Pt(trans-R,R-dach)(ascorbate) [Pt(trans-R,R-dach) (ascorbate) (Ex. 12)] |  |  |  |  |  |  |  |  |  |  |  |  | 30-Day Survivors [10]: 3/6; %ILS [10]: 67%; 30-Day Survivors [11]: 3/6; %ILS [11]: 83%; 30-Day Survivors [12]: 4/6; %ILS [12]: 82%; 30-Day Survivors [13]: 0/6; %ILS [13]: -75%; 30-Day Survivors [14]: 0/6; %ILS [14]: -78%; 30-Day Survivors [15]: 0/6; %ILS [15]: -94% |
| [Pt (cis-dach) (isoascorbate) [[Pt(cis-dach)-(isoascorbate)]] | 0/6 | 9% | 0/6 | 6% | 0/6 | 6% | 0/6 | 17% | 0/6 | 4% and 10% | 0/6 | 12% and 22% | 30-Day Survivors [16]: 2/6; %ILS [16]: 70%; 30-Day Survivors [17]: 2/6; %ILS [17]: 92%; 30-Day Survivors [18]: 3/6; %ILS [18]: 82%; 30-Day Survivors [19]: 0/6; %ILS [19]: 54% |
| [Pt(R,R-trans-dach)(ascorbate)].3H2O [[Pt(R,R-trans-dach)-(ascorbate)]] | 0/6 | 9% | 0/6 | 6% | 0/6 | 9% | 0/6 | 15% and 7% | 0/6 and 0/5 |  | 3/6 | 65% and 55% | 30-Day Survivors [16]: 5/6; %ILS [16]: 100%; 30-Day Survivors [17]: 5/6; %ILS [17]: 72%; 30-Day Survivors [18]: 6/6; %ILS [18]: 100% |
| [Pt(cis-dach)(ascorbate)].3H2O [[Pt(cis-dach)-(ascorbate)] (Isomer VI)] | 0/6 | 23% | 0/6 | 26% | 0/6 | 22% | 6/6 and 0/6 |  | 4/6 and 3/6 | 99% and 77% | 5/6 | 93% | 30-Day Survivors [20]: 0/6; %ILS [21]: 15% |
| [Pt(cis-dach)(ascorbate)].3H2O [[Pt(cis-dach)-(ascorbate)] (Isomer VII)] | 0/6 | 20% | 0/6 | 20% | 0/6 | 43% | 1/6 and 2/6 | 71% and 79% | 5/6 and 3/6 | 98% and 69% | 0/6 | -59% | 30-Day Survivors [20]: 0/6; %ILS [21]: 12% |

— patent EP0174114A1, “Platinum complexes of ascorbic acid and ascorbic acid analogs” (priority 1984, dated 1986)
